Where “and” joins values, the source holds several entries; their conditions need not be identical. Identical values can stand only once. Like-named read-outs stand apart in the source and are kept apart here.
How the values were obtained:
[1] = biological target: T1, endogenous p38δ (Homo sapiens, UniProt O15264+P40337); test: Ternary complex pull-down from MDA-MB-231 whole cell lysate with GST-VBC bait; type: binding
T1 construct: GST-VBC was immobilized on glutathione sepharose beads and incubated with MDA-MB-231 whole cell lysate (WCL); endogenous in cells; host or cells: MDA-MB-231 whole cell lysate (p38δ); GST-VBC bait made in E. coli BL21(DE3)
T1 sequence (O15264 whole entry): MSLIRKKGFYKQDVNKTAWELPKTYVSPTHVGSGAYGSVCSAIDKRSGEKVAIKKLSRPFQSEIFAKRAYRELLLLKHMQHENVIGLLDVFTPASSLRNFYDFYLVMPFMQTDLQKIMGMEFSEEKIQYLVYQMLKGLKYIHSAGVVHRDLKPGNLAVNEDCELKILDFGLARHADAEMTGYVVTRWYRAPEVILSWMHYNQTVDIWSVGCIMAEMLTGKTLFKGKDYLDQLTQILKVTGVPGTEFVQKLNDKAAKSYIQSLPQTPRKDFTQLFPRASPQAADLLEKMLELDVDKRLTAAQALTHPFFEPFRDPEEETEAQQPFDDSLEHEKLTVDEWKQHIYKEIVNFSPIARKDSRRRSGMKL
T1 sequence (P40337 whole entry): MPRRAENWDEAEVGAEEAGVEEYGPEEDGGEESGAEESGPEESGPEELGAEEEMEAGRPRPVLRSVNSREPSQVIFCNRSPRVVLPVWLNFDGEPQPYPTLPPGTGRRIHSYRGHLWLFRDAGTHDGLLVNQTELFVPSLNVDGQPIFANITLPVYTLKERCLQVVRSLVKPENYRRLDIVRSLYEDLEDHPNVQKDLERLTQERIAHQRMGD
T1 sequence (Q15370 whole entry partner): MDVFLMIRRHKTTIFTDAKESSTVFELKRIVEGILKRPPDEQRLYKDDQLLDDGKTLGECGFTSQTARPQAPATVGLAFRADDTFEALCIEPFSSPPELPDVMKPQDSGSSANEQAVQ
T1 sequence (Q15369 whole entry partner): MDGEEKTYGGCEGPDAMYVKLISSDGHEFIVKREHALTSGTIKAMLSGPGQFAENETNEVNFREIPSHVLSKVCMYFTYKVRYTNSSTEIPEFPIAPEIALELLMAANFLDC
Excerpt: FIGS. 15A, 15B, and 15C. Differential p38δ:PROTAC:VHL ternary complex affinities result in distinct cellular ubiquitination outcomes. (A) Both exemplary compound 50 and 46 pull-down p38δ in vitro, however compound 46 maintains ternary complex at lower concentrations. As in FIG. 14A, GST-tagged VBC was used as a bait to trap recombinant p38δ in the presence of vehicle (DMSO) or the indicated concentrations of compound 50 or 46. The rightmost lane represents a 1:25 dilution of initial input protein used in each pull-down. […] GST-VBC was immobilized on glutathione sepharose beads and incubated with MDA-MB-231 whole cell lysate (WCL) in the presence of vehicle (DMSO) or the indicated concentrations of compound 50 or 46. Beads were washed and “trapped” proteins (i.e. those that engage in a ternary complex) were eluted with SDS sample buffer and separated by SDS-PAGE. Samples were assessed by western blot and CUL2 and α-tubulin serve as positive and negative GST-VBC immunoprecipitation controls, respectively. […] FLAGimmunoprecipitated lysates were separated by SDS-PAGE and assessed via western blots detecting HA (Ub). […]
To further assess these findings, a more biologically-relevant context for measuring ternary complex formation was used. […] Thus, whether PROTAC-induced PPIs could be monitored in a complex cellular environment using CETSA was examined. […]

[2] = biological target: T2, p38δ:PROTAC:VHL ternary complex (Homo sapiens, UniProt O15264+P40337); test: SPR ternary complex affinity and kinetics; type: binding; settings: for Kd: equimolar p38δ:PROTAC injected onto immobilized GST-VBC
T2 construct: encoding a region spanning amino acids 1-365 was PCR-amplified; His6 (N); made in house; host or cells: E. coli (BL21-CodonPlus(DE3)-RIPL for p38δ; BL21(DE3) for GST-VBC)
T2 sequence (O15264 whole entry, the tested form may be a part): as the sequence (O15264 whole entry) above
T2 sequence (P40337 whole entry, the tested form may be a part): as the sequence (P40337 whole entry) above
T2 sequence (Q15370 whole entry partner, the tested form may be a part): as the sequence (Q15370 whole entry partner) above
T2 sequence (Q15369 whole entry partner, the tested form may be a part): as the sequence (Q15369 whole entry partner) above
Method: FIGS. 16A, 16B, and 16C. SPR curves assessing binary and ternary interactions. […] (C) SPR kinetic evaluation of p38δ:compound 46:VHL and p38δ:compound 50:VHL ternary complex interactions. Equimolar p38δ:PROTAC mixtures were injected onto immobilized GST-VBC and allowed to dissociate overtime. […] See Table 12 for a summary of the binary and ternary affinity and kinetic measurements.
Next, with the same setup, equimolar p38δ:PROTAC dilutions were successively injected onto immobilized VHL for 60 seconds, prior to monitoring complex dissociation for the remaining 300 seconds. This SPR strategy enabled us to determine effective ternary affinities for a given p38δ:PROTAC:VHL complex and compare the relative affinity change that occurs between VHL:PROTAC when p38δ is present in the mixture. […] This “enhanced” composite affinity is likely due to the additional PPIs between VHL and p38δ when in the presence of exemplary compound 46.
SPR experiments were conducted on a Biacore 3000 instrument (GE Healthcare) at room temperature. GST antibody was immobilized through direct amination onto a carboxymethylated dextran surface (CM5) and GST-VBC was captured on the CM5 surface. This prepared surface was equilibrated over three hours in running buffer (10 mM HEPES buffer pH 7.4, 150 mM NaCl, 0.4 mg mL^−1 BSA, 0.005% P20, 2% DMSO). All compounds were prepared in 100% DMSO stock plates with a top concentration of 500 μM in a 3× serial dilution. Exemplary compounds were transferred from the stock plate to the assay plate and diluted into running buffer without DMSO. Equimolar concentration of target protein was added to corresponding compound wells. All exemplary compounds were run as a twelve point-concentration series with a final assay top concentration of 50 μM to measure p38δ:PROTAC and VHL:PROTAC binding and top concentration of 5 μM to measure p38δ:PROTAC:VHL binding. All exemplary compounds were injected for 60 seconds and allowed to dissociate for 300 seconds. Data analysis was performed in Scrubber 2 (BioLogic Software). Blanks from reference flow cell containing immobilized GST-VBC were subtracted to correct for noise and data was solvent-corrected against a standard DMSO curve.

[3] = SPR, immobilized GST-VBC, listed as Ex. 50

Row | leftward shift of ternary affinity from the VHL:PROTAC binary affinity ([2]; SPR) [fold] | koff ([2]; SPR, immobilized GST-VBC) [s⁻¹] | p38δ:PROTAC:VHL kon ([2]; SPR, immobilized GST-VBC, listed as Ex. 46) [M⁻¹ s⁻¹] | Kd ([2]; read-out: p38δ:PROTAC:VHL Kd) [nM] | SMILES | enrichment of endogenous p38δ from whole cell lysate on GST-VBC bait [1] | kon ([2]; SPR, immobilized GST-VBC) [M⁻¹ s⁻¹] | residence time ([2]; SPR, immobilized GST-VBC) [min] | off-rate quicker than the p38δ:compound 46:VHL complex ([2]; SPR) [fold] | residence time shorter than the p38δ:compound 46:VHL complex ([2]; SPR) [fold] | ternary affinity weaker than the exemplary compound 46-induced complex ([2]; SPR) [fold] | p38δ:PROTAC:VHL koff [2, 3] [s⁻¹] | p38δ:PROTAC:VHL kon [2, 3] [M⁻¹ s⁻¹] | Kd ([2]; read-out: p38δ:PROTAC:VHL affinity)
1 | ~8 | 0.0175 | 39621 | 436 | COc1cc2c(Oc3ccc(NC(=O)C4(C(=O)Nc5ccc(F)cc5)CC4)cc3F)ccnc2cc1OCCOCCOCCOc1cc(-c2scnc2C)ccc1CNC(=O)[C@@H]1C[C@@H](O)CN1C(=O)[C@H](C(C)C)N1Cc2ccccc2C1=O [compound 46] | strongly enrich for endogenous p38δ in a dose-dependent manner | 39600 | 5.5 |  |  |  |  |  | 
2 |  |  |  |  | COc1cc2c(Oc3ccc(NC(=O)C4(C(=O)Nc5ccc(F)cc5)CC4)cc3F)ccnc2cc1OCCCCOCCCCOCC(=O)N[C@H](C(=O)N1C[C@H](O)C[C@H]1C(=O)NCc1ccc(-c2scnc2C)cc1)C(C)(C)C [compound 50, N-(3-fluoro-4-((7-(4-(4-(2-(((S)-1-((2S,4R)-4-hydroxy-2-((4-(4-methylthiazol-5-yl)benzyl)carbamoyl)pyrrolidin-1-yl)-3,3-dimethyl-1-oxobutan-2-yl)amino)-2-oxoethoxy)butoxy)buto-xy)-6-methoxyquinolin-4-yl)oxy)phenyl)-N-(4-fluorophenyl)cyclopropane-1,1-dicarboxa-mide] | greatly reduced | 70100 | 1.33 | ~5 | ~4 | ~3 | 0.072 | 70119 | 1200 nM and > 1000 nM

Source: US20180353501A1 (Arvinas, Inc., priority 2017, published 2018)
